Data reported in paper PMC12024234, “Antioxidant, Anti-Inflammatory, and Oral Bioavailability of Novel Sulfonamide Derivatives of Gallic Acid” (Antioxidants, 2025).
Entries after “also recorded” stand apart in the source; their conditions may differ.

Assays:
COX-2 = target: T1, COX-2 (Homo sapiens, UniProt P35354); assay: Cyclooxygenase (COX-2) activity assay in HIEC-6 cell lysate; assay type: biochemical
T1 construct: endogenous in cells; host or cells: HIEC-6 cell lysate
T1 sequence (P35354 18-604): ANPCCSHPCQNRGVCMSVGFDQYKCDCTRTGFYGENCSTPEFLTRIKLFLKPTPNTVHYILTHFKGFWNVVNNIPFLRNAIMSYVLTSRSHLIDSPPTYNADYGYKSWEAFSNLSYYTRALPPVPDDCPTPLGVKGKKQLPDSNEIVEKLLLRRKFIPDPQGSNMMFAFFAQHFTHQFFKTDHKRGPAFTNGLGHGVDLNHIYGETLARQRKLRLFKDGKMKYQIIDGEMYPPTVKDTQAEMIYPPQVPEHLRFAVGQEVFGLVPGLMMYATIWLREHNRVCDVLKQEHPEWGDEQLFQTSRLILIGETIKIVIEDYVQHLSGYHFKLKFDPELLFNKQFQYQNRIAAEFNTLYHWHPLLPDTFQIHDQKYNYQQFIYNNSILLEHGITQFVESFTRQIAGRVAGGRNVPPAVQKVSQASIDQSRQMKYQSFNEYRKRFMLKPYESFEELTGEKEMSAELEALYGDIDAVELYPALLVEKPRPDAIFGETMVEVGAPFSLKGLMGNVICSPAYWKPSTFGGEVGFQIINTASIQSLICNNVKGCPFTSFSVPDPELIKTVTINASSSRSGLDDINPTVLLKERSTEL
Method: Cyclooxygenase (COX-2) activity assay was performed in HIEC-6 cells according to the manufacturer’s instructions (ab204699). Resorufin standards (0–20 pmol/well) were used to generate a calibration curve for quantifying sample concentrations. HIEC-6 cells were centrifuged at 500× g for 3 min and washed with PBS. The cell pellet was lysed in an ice-cold lysis buffer containing 10% Triton X-100 and a protease inhibitor cocktail in PBS for 5 min. The lysate was then centrifuged at 12,000× g for 3 min at 4 °C, and the supernatant was collected and kept on ice. Protein concentration in the supernatant was determined using a Bradford assay, with a bovine serum albumin standard curve (0–2000 µg/mL). […] This mixture was added to a 96-well plate, and the reaction was initiated by adding arachidonic acid (COX-2 substrate) dissolved in NaOH solution. The enzymatic reaction produced fluorescent resorufin dye, which was measured at excitation/emission wavelengths of λEx/Em = 535/587 nm.

[1] = test system: intracellular reactive oxygen species (ROS) levels in HIEC-6 cells; assay: DCFDA / H2DCFDA ROS assay in HIEC-6; assay type: cell-based, Human; conditions: HIEC-6, 0.2–50 µM
Method: The antioxidant DCFDA assay was conducted in HIEC-6 according to the protocol provided by the manufacturer Abcam (ab11385) and as mentioned by. Cells were seeded at a cell density of 2.5 × 10^4 cells/well in a clear bottom black 96-well microplate and allowed to adhere overnight at 37 °C in a CO2 incubator. Cells were washed and incubated in 100 µL of the diluted staining DCFDA solution, prepared by diluting 20 mM DCFDA in PBS, for 45 min at 37 °C in the dark Then, the DCFDA solution was removed and GA, 3,4,5-THBS, or 3,4,5-TMBS was added to the cells at different concentrations, in addition to doxorubicin, used as a positive control. Unstained cells were designated as blank. Fluorescence was recorded at Ex/Em = 485/535 nm.
The antioxidant activity of GA, 3,4,5-THBS, and 3,4,5-TMBS was assessed in HIEC-6 cells using the fluorescent probe 2′,7′-dichlorodihydrofluorescein diacetate (H2DCFDA). This assay quantifies the oxidation of H2DCFDA to 2′,7′-dichlorofluorescein (DCF), which serves as a marker for intracellular reactive oxygen species (ROS) levels. Cells were exposed to compound concentrations ranging from 0.2 to 50 µM, and the resulting fluorescence intensities were compared to a control group treated with H2DCFDA alone.

HIEC-6 cells = assay: Cell viability CCK-8 assay in HIEC-6; assay type: cell-based, Human; conditions: 24 h incubation
Method: Human intestinal epithelial cells (HIEC-6), originally obtained from the American Type Culture Collection (ATCC), were cultured in Opti-MEM™ I Reduced Serum Medium (Cat. No. 31985) supplemented with 20 mM HEPES, 10 mM L-glutamine, 10 ng/mL epidermal growth factor, and 4% fetal bovine serum (FBS) (New York, NY, USA). Cells were maintained in a humidified 5% CO2 incubator at 37 °C. Cell viability was assessed using the CCK-8 assay, a colorimetric method based on the reduction of water-soluble tetrazolium salts (WST-8) to a water-soluble formazan dye, with the resulting color intensity proportional to the number of viable cells. Briefly, cells were harvested at approximately 80% confluence, detached using trypsin-EDTA, and centrifuged at 1000 rpm for 5 min. The cell pellet was resuspended in fresh medium, and the density was adjusted to 1 × 10^6 cells/mL. A volume of 100 µL (1 × 10^5 cells/well) was seeded into a 96-well plate, with one well containing the medium only as background control. […] Subsequently, 10 µL of CCK-8 reagent was added to each well, and the plate was incubated for 4 h. Absorbance was measured at 450 nm using a microplate reader, results are expressed as the mean ± standard deviation (SD).

[2] = DPPH radical scavenging assay; conditions: for DPPH radical scavenging activity (in words): across tested concentrations 1 to 1000 μM
Method: The antioxidant properties of the compounds under study were examined using the 2,2-Diphenyl-1-picrylhydrazyl (DPPH) assay, following a well-established protocol. A DPPH solution was prepared at a concentration of 0.1 mM in methanol. […] To ensure proper reaction, the mixtures were kept in the dark and incubated at room temperature for 30 min. After incubation, the absorbance of each sample was measured at 517 nm using a UV-VIS spectrophotometer. Gallic acid was used as the reference standard, and methanol served as the blank control.
The ability of the compounds to scavenge free radicals was determined by observing the reduction of DPPH at 517 nm, with lower absorbance values indicating higher antioxidant activity. The half-maximal inhibitory concentration (IC50), defined as the concentration of the compound needed to neutralize 50% of the DPPH radicals, was calculated from the dose–response curve. All experiments were performed in triplicate, and the results are reported as the mean of three independent trials. This method is widely recognized for its reliability and reproducibility in evaluating the antioxidant potential of chemical compounds.

EC50 [2] [µM] | Compound | COX-2 inhibition compared to ibuprofen (COX-2; 1 µM) | COX-2 inhibition compared to ibuprofen (COX-2; 50 µM) | ROS levels (fluorescence intensity) relative to control [1] | IC50 (HIEC-6 cells) [µM] | IC50 (HIEC-6 cells; Homo sapiens, HIEC-6, 24 h) [µM] | DPPH radical scavenging activity ([2]; at 1000 µM) | ROS scavenging activity ([2]; at 1000 µM (abstract)) [%] | DPPH radical scavenging activity (in words) [2] | DPPH radical scavenging activity (in words) ([2]; listed as TMBS)
~27 | NS(=O)(=O)c1cc(O)c(O)c(O)c1 [3,4,5-THBS, 3,4,5-trihydroxybenzenesulfonamide] | inhibition levels similar to ibuprofen | inhibition levels similar to ibuprofen | potent antioxidant activity | 35.5 ± 1.52 | 35 | exceeding 90% | 93 | – | –
– | COc1cc(S(N)(=O)=O)cc(OC)c1OC [3,4,5-TMBS, 3,4,5-trimethoxybenzenesulfonamide] | no significant difference in COX-2 inhibition relative to ibuprofen | high COX-2 inhibition; also recorded: highly significant increase in inhibition | potent antioxidant activity | 33.4 ± 0.7 | 33 | – | – | negligible effects | minimal scavenging activity
